One series deals with Murine J774 macrophages. Kind of series: Cell viability (MTT reduction) of macrophages treated with GSNO or ONOO— after sulfide pretreatment. The class given is cell-based. To be noted: H2S tested on cells to define the highest tested concentration that would reduce viability.
For series [1] the following is noted: at STP; cited from earlier work.
Series [2] concerns LPS-induced IL-1 and TNF production. Kind of series: Bacterial lipopolysaccharide endotoxemia in mice, IL-1β and TNFα plasma levels by ELISA. The class given is in vivo, C57/BI6 mice. To be noted: Tin-protoporphyrin IX 6 mg/kg ip, 30 min before Alzet H2S treatment. How it is done: Four groups of C57/BI6 mice were subjected to bacterial lipopolysaccharide (5 mg/kg ip). Three groups received H2S treatment (0.2 mg/kg/hr, 4 hrs), and a control group received saline using Alzet osmotic minipumps 30 minutes prior to the induction of endotoxemia (n=7−10/group) in both cases. The effect of the heme oxygenase inhibitor tin-protoporphyrin IX (6 mg/kg, ip, 30 min earlier to Alzet treatment) was also examined in two groups. After 4 hours, the animals were anesthetized using pentobarbital (60 mg/kg ip) and blood samples were taken. IL-1β and TNFα plasma levels were measured using a commercially available ELISA kit (R&D Systems).
Background: An ELISA detects its analyte on a solid surface through an enzyme-linked reagent.

For series [3] the following is noted: cited from earlier work.

Results on four compounds are retold here after patent US20140093588A1 (Fred Hutchinson Cancer Research Center, priority 2006, published 2014).

As a reminder, the half-life is the time in which the quantity being followed falls by half.

Procedure for Murine J774 macrophages: Cells were cultured in 96-well plates until cells reached confluence essentially as described in C.
Cell respiration, an indicator of cell viability, was assessed by the mitochondrial-dependent reduction of MTT to formazen (Gross and Levi, 1992). Cells in 96-well plates were incubated at 37° C. with MTT (0.2 mg/ml for 60 min). Culture medium was removed by aspiration, and the cells were solubilized in DMSO. The extent of reduction of MTT to formazan within cells was quantitated by OD550 measurement.
H2S was tested on cells to define the highest tested concentration that would reduce viability. […] Following pretreatment, cells were treated with GSNO (1 mM, 3 mM, or 10 mM). Cell viability was measured at three hours.
Following pretreatment, ONOO— was added at concentrations of 0.3 mM, 0.6 mM, or 1 mM. Cell viability was measured at three hours.
Three hours after treatment, cell viability was measured.
In a related experiment, Murine J774 macrophages were grown until confluency in 96 well plates. Cells were pretreated with H2S (30 mM, 60 mM, 100 mM, 1 mM) for 30 minutes or 24 hours, then cells were incubated with GSNO or ONOO— for 3 hours. GSNO was used in 1 mM and 3 mM concentrations, while ONOO— was used in 300 mM concentration. Following treatment, cells were incubated for 20 minutes with fresh media containing 0.05% MTT. […] Optical density was measured at 550 nm.

Consider `S` [H2S, hydrogen sulfide], for which the “concentration that may confer a protective effect” value with Murine J774 macrophages is on record as 1 mM.

Regarding `[N]=O` [NO, nitric oxide], in series [1], the “soluble in water up to a concentration” value is listed as “about 2 mM”.

As to `C=Cc1c2[n-]c(c1C)/C=c1\[n-]/c(c(C)c1C=C)=C\c1[n-]c(c(CCC(=O)O)c1C)C=c1[n-]/c(c(C)c1CCC(=O)O)=C\2.[Sn+4]` [Tin-protoporphyrin IX, tin-protoporphyrin IX], the “effect of H2S on IL-1 after pretreatment with the heme oxygenase inhibitor” value in series [2] is recorded as “attenuated”.

Turning to `O=NOO` [peroxynitrite], the half-life in series [3] was roughly 1 s.
